Results on two compounds are retold here after patent US20130296358A1, “3-SPIROCYCLIC PIPERIDINE DERIVATIVES AS GHRELIN RECEPTOR AGONISTS” (priority 2012, published 2013).

The nature of the series: Aqueous solubility of crystalline L-malate salt forms versus free base. Conditions: compared to the free base amorphous form. Type of series: physicochemical.

Take `CN1C[C@@H](c2ccc(F)cc2)[C@@]2(CCCN(C(=O)[C@@H](COCc3ccccc3)NC(=O)C(C)(C)N)C2)C1=O.O=C(O)C[C@H](O)C(=O)O` [2-amino-N-((2R)-3-(benzyloxy)-1-((4S,5R)-4-(4-fluorophenyl)-2-methyl-1-oxo-2,7-diazaspiro[4.5]decan-7-yl)-1-oxopropan-2-yl)-2-methylpropanamide L-malate salt]: the aqueous solubility entry is reported as “increased aqueous solubility”.

As to `Cc1ccc(C2CN(C)C(=O)C23CCCN(C(=O)[C@@H](COCc2ccccc2)NC(=O)C(C)(C)N)C3)cc1.O=C(O)C[C@H](O)C(=O)O` (stereo partly drawn) [2-amino-N-((2R)-3-(benzyloxy)-1-(2-methyl-1-oxo-4-p-tolyl-2,7-diazaspiro[4.5]decan-7-yl)-1-oxopropan-2-yl)-2-methylpropanamide L-malate salt], the aqueous solubility result was “increased aqueous solubility”.
